Test results from patent US20100267734A1, “N-[(3,5-DICHLOROPHENYL)METHYL]-2-(4-METHYL-1-PIPERAZINYL)-2-(1-NAPHTHALENYL)ETHANAMIDE AS GHRELIN RECEPTOR MODULATOR” (Glaxo Group Limited, priority 2007, published 2010).
Where a name gives a salt, the structure may show the parent alone.

Experiments:
[1] = target: T1, Human GHSR (Homo sapiens, UniProt Q92847); assay: GHS-R GTPγS functional antagonist assay; format: biochemical; design: The full-length gene was transferred into pCDN for expression analysis; expressed in transfected cells; host or cells: CHO cells (electroporated, pCDN) or HEK293T cells (transient, pcDNA3); membranes prepared from the cultured cells; details: membranes of HEK293T cells transiently expressing GHS-R; human Ghrelin at EC80; [35S]GTPγS SPA
T1 sequence (Q92847 whole entry): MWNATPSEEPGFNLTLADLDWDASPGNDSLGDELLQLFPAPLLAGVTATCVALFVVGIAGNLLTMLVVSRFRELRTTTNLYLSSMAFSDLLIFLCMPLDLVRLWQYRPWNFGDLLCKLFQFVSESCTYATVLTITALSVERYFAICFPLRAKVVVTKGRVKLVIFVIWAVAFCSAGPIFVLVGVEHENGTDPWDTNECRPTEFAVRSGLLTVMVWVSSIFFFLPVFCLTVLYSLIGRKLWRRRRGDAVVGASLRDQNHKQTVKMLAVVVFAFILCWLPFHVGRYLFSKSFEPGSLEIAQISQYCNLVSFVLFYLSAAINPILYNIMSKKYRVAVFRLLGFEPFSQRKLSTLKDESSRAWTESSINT
Method: Human GHS-R was cloned from human hypothalamus cDNA and TOPO Ta cloned into pCR2.1. The sequence was confirmed. The full-length gene was transferred into pCDN for expression analysis. The sequence was confirmed again and the plasmid was electroporated into CHO cells. The clones were screened by FLIPR.
HEK293T cells (HEK293 cells stably expressing the SV40 large T-antigen) were maintained in DMEM containing 10% (v/v) newborn calf serum and 2 mM glutamine. Cells were seeded in 60 mm culture dishes and grown to 60-80% confluency (18-24 h) prior to transfection with pcDNA3 containing the relevant DNA species using Lipofectamine reagent. […]
The plate was then incubated on a shaker at room temperature for 30 mins followed by centrifugation for 5 mins at 1500 rpm. The plate was read between 3 and 6 hours after completion of centrifuge run in a Wallac Microbeta counter on a 1 min normalised tritium count protocol. Data was analysed using a 4-parameter logistic equation. […]
Protocol as described above for functional agonist assay, except prior to addition of the [35-S], 10 ul of human Ghrelin solution in assay buffer was added to give a final concentration equating to EC80 (determined for each assay).

[2] = target: T1, Human GHSR; assay: GHSR Antagonist BACMAM FLIPR Assay (Method B); format: cell-based; design: The full-length gene was transferred into pCDN for expression analysis; expressed in transfected cells; host or cells: U2OS cells transduced with human GHSR BacMam virus (pFastBacmam, CMV promoter); details: U2OS cells transduced with human GHSR BACMAM virus, EC80 hGhrelin, accurate to within ±0.5
Excerpt: Human GHS-R was cloned from human hypothalamus cDNA and TOPO Ta cloned into pCR2.1. The sequence was confirmed. The full-length gene was transferred into pCDN for expression analysis. The sequence was confirmed again and the plasmid was electroporated into CHO cells. The clones were screened by FLIPR. The open reading frame of GHS-R was transferred from pCDN into pFastBacmam vector. This vector was used to generate recombinant baculoviruses in which the insect cell-specific polyhedrin promoter has been replaced with a mammalian cell-active promoter, in this case CMV. This was then used with the Bac to Bac expression system (Invitrogen). Briefly the vector was transformed into DH10 bac E. coli and the bacmid isolated from the transformed cells. The bacmid was then transfected into Sf9 insect cells grown in ExCell 420 (JRH) medium in 6-well dishes for the production of recombinant baculovirus particules. 24 hours prior to assay U2OS cells at confluence 100% were harvested and spun down. The supernatant was removed and the cells resuspended in media (DMEM+10% FBS+1% L-Glutamine). […] Human GHSR BACMAM virus was added to the cell suspension at an appropriate % volume (calculated for individual batches of BACMAM virus as viral titres vary). […] Maximum changes in fluorescence were plotted and curves fitted using a 4-parameter logistic equation to generate pIC50 values.

[3] = target: T1, Human GHSR; assay: GHSR Agonist BACMAM FLIPR Assay (Method Y); format: cell-based; design: The full-length gene was transferred into pCDN for expression analysis; expressed in transfected cells; host or cells: U2OS cells transduced with human GHSR BacMam virus (pFastBacmam, CMV promoter); details: U2OS cells transduced with human GHSR BACMAM virus, accurate to within ±0.5
Excerpt: Human GHS-R was cloned from human hypothalamus cDNA and TOPO Ta cloned into pCR2.1. The sequence was confirmed. The full-length gene was transferred into pCDN for expression analysis. The sequence was confirmed again and the plasmid was electroporated into CHO cells. The clones were screened by FLIPR. The open reading frame of GHS-R was transferred from pCDN into pFastBacmam vector. This vector was used to generate recombinant baculoviruses in which the insect cell-specific polyhedrin promoter has been replaced with a mammalian cell-active promoter, in this case CMV. This was then used with the Bac to Bac expression system (Invitrogen). Briefly the vector was transformed into DH10 bac E. coli and the bacmid isolated from the transformed cells. […] Human GHSR BACMAM virus was added to the cell suspension at an appropriate % volume (calculated for individual batches of BACMAM virus as viral titres vary). […] The plates were placed in a FLuorimetric Imaging Plate Reader (FLIPR, Molecular Devices) where 10 μl of compound was added to the cells and fluorescence measurements were taken. […] Intrinsic activity of the compounds was calculated by using the maximum asymptote of it's concentration response curve relative to the maximum asymptote of the hGhrelin concentration response curve.

Ki [1] [nM] | IC50 [2] [nM] | EC50 [3] [nM] | SMILES
< 10 |  |  | CN1CCN(C(C(=O)NCc2cc(Cl)cc(Cl)c2)c2cccc3ccccc23)CC1 (racemic) [Compound 1, (±)-N-[(3,5-dichlorophenyl)methyl]-2-(4-methyl-1-piperazinyl)-2-(1-naphthalenyl)ethanamide]
< 10 | 10 | > 2000 | CN1CCN([C@@H](C(=O)NCc2cc(Cl)cc(Cl)c2)c2cccc3ccccc23)CC1 [Compound 3, (2R)-N-[(3,5-dichlorophenyl)methyl]-2-(4-methyl-1-piperazinyl)-2-(1-naphthalenyl)ethanamide hydrochloride]
